# Experimental data published in patent US6632831B2, “Branched chain amino acid-dependent aminotransferase inhibitors and their use in the treatment of neurodegenerative diseases” (Pfizer Inc., priority 2001, dated 2003).
# Where “and” joins values, the source holds several entries; their conditions need not be identical. Identical values can stand only once.
# Target: T1, human Branched Chain Amino Acid Aminotransferase cytosolic form (hBCATc) (Homo sapiens, UniProt P54687)
# T1 construct: inferred from purification on a Ni-charged chelating column with imidazole elution; made in house; host or cells: E. coli BL21(DE3)
# T1 sequence (P54687 1-386): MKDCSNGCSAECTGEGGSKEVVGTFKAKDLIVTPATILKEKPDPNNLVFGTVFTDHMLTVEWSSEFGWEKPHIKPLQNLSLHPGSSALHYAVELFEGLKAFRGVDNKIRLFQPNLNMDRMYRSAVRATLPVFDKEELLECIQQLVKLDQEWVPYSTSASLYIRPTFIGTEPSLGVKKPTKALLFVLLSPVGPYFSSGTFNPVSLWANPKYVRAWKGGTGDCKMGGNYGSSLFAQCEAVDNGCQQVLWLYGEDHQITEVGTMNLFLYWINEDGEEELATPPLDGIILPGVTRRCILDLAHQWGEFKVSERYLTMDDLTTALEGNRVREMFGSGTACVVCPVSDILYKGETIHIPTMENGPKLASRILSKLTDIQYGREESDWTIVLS
# Assay: In vitro coupled enzyme assay, hBCATc
# Assay type: biochemical
# Conditions: 37° C., 25 mM phosphate buffer pH 7.8; coupled glutamate dehydrogenase assay; read-out: hBCATc I50
# Procedure: In vitro enzyme assay—human Branched Chain Amino Acid Aminotransferase cytosolic form (hBCATc) and mitochondrial form (hBCATm) were assayed at 37° C. in 25 mM phosphate buffer pH 7.8. In addition, 2 mM DTT and 12.5 mM EDTA were added to the assay mixture. A coupling enzyme assay was used to monitor the production of glutamate. The formation of NADH from NAD+at […] was followed on a 96-well plate Molecular Devices plate reader. The following components were used in this coupled assay: 4 mM ADP, 1 mM NAD+, 750 μM L-Leucine, 500 μM (α-ketoglutarate, 10 μM pyridoxal phosphate, 1 unit glutamate dehydrogenase, and 1.25 μg of the appropriate BCAT enzyme. Inhibitions by compounds were assayed by adding various concentrations to this coupled assay procedure as a DMSO stock up to a 5% v/v DMSO/buffer ratio. Data is shown in Table 1.
# Enzyme Preparation—humanBCATc was expressed in BL21(DE3) cells. A growing culture of cells was induced with 1 mM IPTG at room temperature overnight. These cells were harvested by centrifugation at 10,000 g for 20 minutes. The supernatant was discarded, and the cells were stored at −80° C. until needed. The protein was purified by the following method. The cell paste was resuspended in extraction buffer (0.1 M phosphate, pH 8.0, with 0.01 M Tris-HCL and 5 mM TCEP and then lysed on a French Press at 1000 psi. The lysate was centrifuged at 10,000 g for 15 minutes, and the pellet was discarded. The supernatant was loaded onto a Hitrap Chelating column previously charged with 0.1 M NiSO4 and washed with 3 to 4 column volumes of extraction buffer. The column was then washed with 0.01 Tris, pH 7.5, 10% glycerol, 150 mM NaCl, 5 mM TCEP for two column volumes. The column was then further washed with two column volumes of 0.1 M phosphate, pH 6.0, 0.01 M Tris, 10% glycerol and 750 mM NaCl. Finally, the column was washed with two column volumes of the same buffer plus 50 mM imidazole. The BCAT enzyme was then eluted with the same buffer but with 350 mM imidazole. The eluant was then dialyzed overnight against 10 mM phosphate buffer pH 8.0, 10% glycerol, and 5 mM TCEP. The dialyzed protein was then loaded onto a Q-sepharose column and eluted using a salt gradient. Active fractions were collected and further purified on a Superose-12 column to yield pure BCAT protein.
row,Compound,IC50
1,"O=C1N=C(Nc2c(Cl)cccc2Cl)S/C1=C\C(=O)N1CCCC1 [Example 21, 2-(2,6-Dichloro-phenylamino)-5-(2-oxo-2-pyrrolidin-1-yl-ethylidene)-thiazol-4-one]",13.8 µM
2,"COC(=O)/C=C1\SC(Nc2ccccc2C)=NC1=O [Example 4, [2-(2-Methyl-phenylamino)-4-oxo-4H-thiazol-5-ylidene]-acetic Acid Methyl Ester]",43.9 µM and 29.6 µM
3,"O=C1N=C(Nc2c(Cl)cccc2Cl)S/C1=C\C(=O)N1CCCCC1 [Example 17, 2-(2,6-Dichloro-phenylamino)-5-(2-oxo-2-piperidine-1-yl-ethylidene)-thiazol-4-one]",12.8 µM
4,"CONC(=O)/C=C1\SC(Nc2c(Cl)cccc2Cl)=NC1=O [Example 10, [2-(2,6-Dichloro-phenylamino)-4-oxo-4H-thiazol-5-ylidene]-N-methoxy-acetamide]",31.7 µM
5,"O=C(/C=C1\SC(Nc2c(Cl)cccc2Cl)=NC1=O)NC1CCCCC1 [Example 22, N-Cyclohexyl-2-[2-(2,6-dichloro-phenylamino)-4-oxo-4H-thiazol-5-ylidene]-acetamide]",22.6 µM
6,"O=C(/C=C1\SC(Nc2c(Cl)cccc2Cl)=NC1=O)NCC(O)CO (stereo not shown) [Example 28, 2-[2-(2,6-Dichloro-phenylamino)-4-oxo-4H-thiazol-5-ylidene]-N-(2,3-dihydroxy-propyl)-acetamide]",66.9 µM
7,"CC(C)(C)OC(=O)/C=C1\SC(Nc2c(Cl)cccc2Cl)=NC1=O [Example 3, [2-(2,6-Dichloro-phenylamino)-4-oxo-4H-thiazol-5-ylidene]-acetic Acid Tert-butyl Ester]",68.6 µM and 36.9 µM
8,"CCOC(=O)/C=C1\SC(Nc2c(Cl)cccc2Cl)=NC1=O [Example 2, [2-(2,6-Dichloro-phenylamino)-4-oxo-4H-thiazol-5-ylidene]-acetic Acid Ethyl Ester]",52.5 µM
9,"CNCCCCCCCCN(C)C(=O)/C=C1\SC(Nc2c(Cl)cccc2Cl)=NC1=O [Example 34, 2-[2-(2,6-Dichloro-phenylamino)-4-oxo-4H-thiazol-5-ylidene]-N-methyl-N-(8-methylamino-octyl)-acetamide]",75.6 µM
10,"C=C(C)CNC(=O)/C=C1\SC(Nc2c(Cl)cccc2Cl)=NC1=O [Example 29, 2-[2-(2,6-Dichloro-phenylamino)-4-oxo-4H-thiazol-5-ylidene]-N-(2-methyl-allyl)-acetamide]",31.1 µM
11,"CCCN(CC1CC1)C(=O)/C=C1\SC(Nc2c(Cl)cccc2Cl)=NC1=O [Example 31, N-Cyclopropylmethyl-2-[2-(2,6-dichloro-phenylamino)-4-oxo-4H-thiazol-5-ylidene]-N-propyl-acetamide]",11.2 µM
12,"CCN1CCN(C(=O)/C=C2\SC(Nc3c(Cl)cccc3Cl)=NC2=O)CC1 [Example 18, 2-(2,6-Dichloro-phenylamino)-5-[2-(4-ethyl-piperazin-1-yl)-2-oxo-ethylidene)-thiazol-4-one]",64.1 µM
13,"O=C(/C=C1\SC(Nc2c(Cl)cccc2Cl)=NC1=O)NCCOCCO [Example 26, 2-[2-(2,6-Dichloro-phenylamino)-4-oxo-4H-thiazol-5-ylidene]-N-[2-(2-hydroxy-ethoxy)-ethyl]-acetamide]",56.3 µM
14,"COCCNC(=O)/C=C1\SC(Nc2c(Cl)cccc2Cl)=NC1=O [Example 16, 2-[2-(2,6-Dichloro-phenylamino)-4-oxo-4H-thiazol-5-ylidene]-N-(2-methoxy-ethyl)-acetamide]",82.7 µM
15,"CC1CC(C)CN(C(=O)/C=C2\SC(Nc3c(Cl)cccc3Cl)=NC2=O)C1 (stereo not shown) [Example 24, 2-(2,6-Dichloro-phenylamino)-5-[2-(3,5-dimethyl-piperidin-1-yl)-2-oxo-ethylidene)-thiazol-4-one]",8.97 µM
16,"COC(=O)/C=C1\SC(Nc2c(Cl)cccc2Cl)=NC1=O [Example 1, [2-(2,6-Dichloro-phenylamino)-4-oxo-4H-thiazol-5-ylidene]-acetic Acid Methyl Ester]",4.1 µM
17,"O=C(/C=C1\SC(Nc2c(Cl)cccc2Cl)=NC1=O)NCCCN1CCCC1 [Example 19, 2-[2-(2,6-Dichloro-phenylamino)-4-oxo-4H-thiazol-5-ylidene]-N-(3-pyrrolidin-1-yl-propyl)-acetamide]",55 µM
18,"CN1CCC(N(C)C(=O)/C=C2\SC(Nc3c(Cl)cccc3Cl)=NC2=O)C1 (stereo not shown) [Example 32, 2-[2-(2,6-Dichloro-phenylamino)-4-oxo-4H-thiazol-5-ylidene]-N-methyl-N-(1-methyl-pyrrolidin-3-yl)-acetamide]",89.8 µM
19,"COC(CNC(=O)/C=C1\SC(Nc2c(Cl)cccc2Cl)=NC1=O)OC [Example 23, 2-[2-(2,6-Dichloro-phenylamino)-4-oxo-4H-thiazol-5-ylidene]-N-(2,2-dimethoxy-ethyl)-acetamide]",39.8 µM
20,"O=C(/C=C1\SC(Nc2c(Cl)cccc2Cl)=NC1=O)NCCOc1ccccc1 [Example 33, 2-[2-(2,6-Dichloro-phenylamino)-4-oxo-4H-thiazol-5-ylidene]-N-(2-phenoxy-ethyl)-acetamide]",40.4 µM
21,"O=C(/C=C1\SC(Nc2c(Cl)cccc2Cl)=NC1=O)NC1CCCC1 [Example 30, N-Cyclopentyl-2-[2-(2,6-dichloro-phenylamino)-4-oxo-4H-thiazol-5-ylidene]-acetamide]",16.6 µM
22,"CSCCCNC(=O)/C=C1\SC(Nc2c(Cl)cccc2Cl)=NC1=O [Example 27, 2-[2-(2,6-Dichloro-phenylamino)-4-oxo-4H-thiazol-5-ylidene]-N-(3-methylsulfanyl-propyl)-acetamide]",41.2 µM
23,"CNC(=O)/C=C1\SC(Nc2c(Cl)cccc2Cl)=NC1=O [Example 6, [2-(2,6-Dichloro-phenylamino)-4-oxo-4H-thiazol-5-ylidene]-N-methyl-acetamide]",3.1 µM and 1.9 µM
24,"CCCNC(=O)/C=C1\SC(Nc2c(Cl)cccc2Cl)=NC1=O [Example 8, [2-(2,6-Dichloro-phenylamino)-4-oxo-4H-thiazol-5-ylidene]-N-propyl-acetamide]",35.7 µM and 17.4 µM
25,"CC(C)NC(=O)/C=C1\SC(Nc2c(Cl)cccc2Cl)=NC1=O [Example 20, 2-[2-(2,6-Dichloro-phenylamino)-4-oxo-4H-thiazol-5-ylidene]-N-isopropyl-acetamide]",65.9 µM
26,"CCNC(=O)/C=C1\SC(Nc2c(Cl)cccc2Cl)=NC1=O [Example 7, [2-(2,6-Dichloro-phenylamino)-4-oxo-4H-thiazol-5-ylidene]-N-ethyl-acetamide]",13.1 µM and 3.15 µM
27,"CN(C)C1CCN(C(=O)/C=C2\SC(Nc3c(Cl)cccc3Cl)=NC2=O)C1 (stereo not shown) [Example 25, 2-(2,6-Dichloro-phenylamino)-5-[2-(3-dimethylamino-pyrrolidin-1-yl)-2-oxo-ethylidene)-thiazol-4-one]",65.1 µM

# Same assay, conditions: @ 20 μM compound; 37° C., pH 7.8 coupled assay
row,Compound,hBCATc Inhibit % @ 20 μM
1,"N-(1-Benzyl-pyrrolidin-3-yl)-2-[2-(2,6-dichloro-phenylamino)-4-oxo-4H-thiazol-5-ylidene]-N-methyl-acetamide [Example 36]",Inhibit 29% @ 20 μM

# Same assay, conditions: @ 20 μM compound; 37° C., pH 7.8 coupled assay; read-out: hBCATc Inhibit % @ 20 μM
row,Compound,inhibition at 20 µM [%]
1,"O=C(/C=C1\SC(Nc2c(Cl)cccc2Cl)=NC1=O)NCc1ccc(Cl)cc1 [Example 35, N-(4-Chloro-benzyl)-2-[2-(2,6-dichloro-phenylamino)-4-oxo-4H-thiazol-5-ylidene]-acetamide]",130
2,"CC(C)CCC(C)NC(=O)/C=C1\SC(Nc2c(Cl)cccc2Cl)=NC1=O (stereo not shown) [Example 37, 2-[2-(2,6-Dichloro-phenylamino)-4-oxo-4H-thiazol-5-ylidene]-N-(1,4-dimethyl-pentyl)-acetamide]",34
3,"CC(C)CC(C)NC(=O)/C=C1\SC(Nc2c(Cl)cccc2Cl)=NC1=O (stereo not shown) [Example 38, 2-[2-(2,6-Dichloro-phenylamino)-4-oxo-4H-thiazol-5-ylidene]-N-(1 ,3-dimethyl-butyl)-acetamide]",33
